The record followed here is patent US20200288710A1, “SUBSTITUTED SULPHONAMIDES FOR CONTROLLING ANIMAL PESTS” (BAYER CROPSCIENCE AKTIENGESELLSCHAFT, priority 2016, published 2020).

Common to all, as to type: in vivo
Experiment [1] has as its system Myzus persicae. Put plainly: Myzus persicae oral test. The conditions noted are these: 120 h, 20 ppm, oral uptake, after 5 days, read-out: efficacy. The essentials:
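Aphids of mixed ages imbibe, through parafilm, compound solution (acetone stock, water-diluted) combined with sugar-supplemented IPL41 medium to 200 μl. Efficacy read at day 5 as percent killed, 0% meaning no deaths.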

A further experiment has as its system Musca domestica. Put plainly: Musca domestica test. The conditions noted are these: 48 h, adult houseflies, after 2 days, read-out: efficacy (kill in %). Here is the method: Musca domestica Test Solvent: dimethyl sulphoxide To produce a suitable preparation of active compound, 10 mg of active compound are mixed with 0.5 ml of dimethyl sulphoxide, and the concentrate is diluted with water to the desired concentration. Vessels containing a sponge treated with sugar solution and the active compound preparation of the desired concentration are populated with 10 adult houseflies (Musca domestica). After 2 days, the kill in % is determined. 100% means that all of the flies have been killed; 0% means that none of the flies have been killed.

For experiment [2], the system named is Myzus persicae. As to the kind of experiment: Myzus persicae spray test (bell pepper plants). Particulars: 144 h, after 6 days, read-out: efficacy (kill in %). How it is done:
Myzus persicae—Spray Test Solvent: 14 parts by weight of dimethylformamide Emulsifier: alkylaryl polyglycol ether To produce a suitable preparation of active compound, 1 part by weight of active compound is dissolved using the specified parts by weight of solvent and made up with water containing an emulsifier concentration of 1000 ppm until the desired concentration is attained. To produce further test concentrations, the formulation is diluted with emulsifier-containing water. If the addition of ammonium salts or/and penetrants is required, these are each added in a concentration of 1000 ppm to the formulation solution. Bell pepper plants (Capsicum annuum) severely infested with the green peach aphid (Myzus persicae) are treated by spraying with the active compound preparation in the desired concentration. After 6 days, the kill in % is determined. 100% means that all of the aphids have been killed; 0% means that none of the aphids have been killed.

Another experiment relates to Meloidogyne incognita. Put plainly: Meloidogyne incognita test. The conditions noted are these: 336 h, lettuce, after 14 days, read-out: nematicidal efficacy (formation of galls). The essentials:
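Gall formation on lettuce roots scored after 14 days: 0% means gall count equals untreated control, 100% means none. Sand vessels held the compound (acetone concentrate diluted in water), southern root-knot nematode egg/larvae suspension and lettuce seeds.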

Another experiment has as its system Lucilia cuprina. Put plainly: Lucilia cuprina test. The conditions noted are these: 48 h, L1 larvae, after 2 days, read-out: efficacy (kill in %). The essentials:
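About 20 L1 larvae were held on minced horsemeat treated with compound, which was formulated in DMSO and diluted with water. Percent kill was scored after 2 days.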

The next experiment deals with Aphis gossypii. Put plainly: Aphis gossypii spray test. Particulars: 100 ppm, cotton plants, after 6 days. How it is done:
Aphis gossypii—Spray Test Solvent: 14 parts by weight of dimethylformamide Emulsifier: alkylaryl polyglycol ether To produce a suitable preparation of active compound, 1 part by weight of active compound is dissolved using the specified parts by weight of solvent and made up with water containing an emulsifier concentration of 1000 ppm until the desired concentration is attained. To produce further test concentrations, the formulation is diluted with emulsifier-containing water. If the addition of ammonium salts or/and penetrants is required, these are each added in a concentration of 1000 ppm to the formulation solution. Cotton plants (Gossypium hirsutum) which are heavily infested by the cotton aphid (Aphis gossypii) are sprayed with an active compound preparation of the desired concentration. After 6 days, the kill in % is determined. 100% means that all the aphids have been killed; 0% means that no aphids have been killed.

The next experiment concerns Phaedon cochleariae. As to the kind of experiment: Phaedon cochleariae spray test. Particulars: foliar, 168 h, Chinese cabbage leaf discs, larvae, after 7 days, read-out: efficacy. The essentials: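 Mortality of beetle larvae scored at day 7, expressed as % (0% none killed, 100% all). Formulation: compound in solvent, made up and further diluted with emulsifier-containing water (1000 ppm emulsifier).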

A further experiment concerns Tetranychus urticae. Put plainly: Tetranychus urticae spray test, OP-resistant. The conditions noted are these: foliar, 144 h, bean leaf discs, after 6 days, read-out: efficacy. How it is done: Tetranychus urticae—Spray Test, OP-Resistant
To produce a suitable preparation of active compound, 1 part by weight of active compound is dissolved using the specified parts by weight of solvent and made up with water containing an emulsifier concentration of 1000 ppm until the desired concentration is attained. To produce further test concentrations, the formulation is diluted with emulsifier-containing water.
Discs of bean leaves (Phaseolus vulgaris) infested with all stages of the greenhouse red spider mite (Tetranychus urticae) are sprayed with an active compound preparation of the desired concentration.
After 6 days, the efficacy in % is determined. 100% means that all the spider mites have been killed; 0% means that no spider mites have been killed.

Experiment [3] has as its system Myzus persicae. Put plainly: Myzus persicae spray test (Chinese cabbage leaf discs). The conditions noted are these: foliar, 120 h, 500 g/ha, after 5-6 days, read-out: efficacy. The essentials:
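Formulated compound in acetone/dimethylformamide, diluted in water with 1000 ppm emulsifier, was sprayed onto Brassica pekinensis leaf discs carrying mixed-stage Myzus persicae. Percent mortality was read 5-6 days later (0% = no aphids killed, 100% = all killed).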

Another experiment concerns Boophilus microplus. Put plainly: Boophilus microplus injection test. The conditions noted are these: 20 μg/animal, injection into engorged adult female cattle ticks, after 7 days. Here is the method: Boophilus microplus—Injection Test Solvent: dimethyl sulphoxide To produce a suitable preparation of active compound, 10 mg of active compound are mixed with 0.5 ml of solvent and the concentrate is diluted with solvent to the desired concentration. 1 μl of the active compound solution is injected into the abdomen of 5 engorged adult female cattle ticks (Boophilus microplus). The animals are transferred into dishes and kept in a climate-controlled room. Efficacy is assessed after 7 days by laying of fertile eggs. Eggs which are not externally visibly fertile are stored in a climate-controlled cabinet until the larvae hatch after about 42 days. An efficacy of 100% means that none of the ticks has laid any fertile eggs; 0% means that all the eggs are fertile.

As to `CCn1cc(C(=O)NS(=O)(=O)c2cc(OC)ccc2Cl)nc1-c1ccccc1Cl` [Example 68], the pest or weed control at 20 ppm is 100% in the experiment on Myzus persicae [1] and 90% with Meloidogyne incognita. For the same compound, the pest or weed control at 100 ppm in the experiment with Musca domestica was determined as 80%; in the experiment on Myzus persicae [2] (100 ppm), 100%; in the experiment on Lucilia cuprina, 100%.
For the compound `Cc1c(C(=O)NS(=O)(=O)c2ccccc2Cl)nc(-c2ccccc2Cl)n1C` [Example 103], the pest or weed control at 20 ppm with Myzus persicae [1] and in the experiment on Meloidogyne incognita was 100% throughout. The “efficacy (kill in %)” value with Aphis gossypii turned out to be 98%.
As to `Cc1c(C(=O)NS(=O)(=O)c2ccccc2Cl)nc(-c2c(F)cccc2F)n1C` [Example 194], the results for the pest or weed control at 20 ppm in the experiment with Myzus persicae [1] and with Meloidogyne incognita were 100% and 90%, respectively. Also, the “efficacy (kill in %)” value in the experiment on Aphis gossypii was 100%.
Regarding `Cc1c(C(=O)NS(=O)(=O)c2ccccc2Br)nc(-c2c(F)cccc2F)n1C` [Example 195], the pest or weed control at 20 ppm is 100% with Myzus persicae [1], 80% with Myzus persicae [2] (20 ppm) and 90% in the experiment with Meloidogyne incognita. For the same compound, the pest or weed control at 500 g/ha worked out at 100% in the experiment on Phaedon cochleariae and 90% in the experiment on Tetranychus urticae.
Turning to `CCc1ccccc1S(=O)(=O)NC(=O)c1cn(C)c(-c2ccccc2Cl)n1` [Example 219], the pest or weed control at 20 ppm was determined as 100% with Myzus persicae [1] and 90% with Meloidogyne incognita. For the same compound, the pest or weed control at 500 g/ha with Myzus persicae [3] is 100%. For the same compound, the pest or weed control at 100 ppm in the experiment on Musca domestica was 85%; in the experiment on Lucilia cuprina it was 100%. In addition, in the experiment on Boophilus microplus, the “efficacy (laying of fertile eggs)” value amounted to 80%.
In the case of `Cc1ccc(C)c(S(=O)(=O)NC(=O)c2cn(C)c(-c3cccc4ccccc34)n2)c1` [Example 502], the pest or weed control at 20 ppm in the experiment on Myzus persicae [1] and in the experiment on Meloidogyne incognita was 100% throughout. Moreover, in the experiment with Phaedon cochleariae, the pest or weed control at 500 g/ha worked out at 100%. In addition, the “efficacy (kill in %)” value with Aphis gossypii came to 95%.
